Measured values as given in patent US20110312934A1, “2-ALKYL-6-CYCLOAMINO-3-(PYRIDIN-4-YL)IMIDAZO[1,2-B]-PYRIDAZINE DERIVATIVES, PREPARATION THEREOF, AND THERAPEUTIC APPLICATION THEREOF” (SANOFI-AVENTIS, priority 2008, published 2011).
Counter-ions that a name gives are not always drawn.

Row | melting point | Compound
1 | 120 °C (dec.) | Cc1nc2ccc(N3C[C@@H]4C[C@H]3CN4)nn2c1-c1ccncc1
2 | > 300 °C | Cc1cc(-c2c(C)nc3ccc(N4C[C@@H]5C[C@@H]4CN5)nn23)ccn1 (as salt: HBr)
3 | > 295 °C | Cc1cc(-c2c(C)nc3ccc(N4CCC5(CCCNC5)CC4)nn23)ccn1 (as salt: HCl)
4 | > 255 °C | Cc1nc2ccc(N3CCC4(CC3)CNCCO4)nn2c1-c1ccncc1 (as salt: HCl)
5 | > 300 °C | Cc1nc2ccc(N3CCC4(CC3)CNCCO4)nn2c1-c1ccnc(N)c1 (as salt: HCl)
6 | 319 to 321 °C | Cc1nc2ccc(N3CCNCC3)nn2c1-c1ccncc1 (as salt: HCl) [Compound 2, 2-Methyl-6-piperazin-1-yl-3-pyridin-4-yl-imidazo[1,2-b]pyridazine]
7 | 305 to 307 °C | CCN1CCN(c2ccc3nc(C)c(-c4ccncc4)n3n2)CC1 (as salt: HCl) [Compound 42, 6-(4-Ethylpiperazin-1-yl)-2-methyl-3-pyridin-4-ylimidazo[1,2-b]pyridazine]
8 | 343 to 345 °C | Cc1nc2ccc(N3C[C@@H](C)N[C@@H](C)C3)nn2c1-c1ccncc1 (as salt: HCl) [Compound 54, 6-(cis-3,5-Dimethylpiperazin-1-yl)-2-methyl-3-pyridin-4-ylimidazo[1,2-b]pyridazine]
9 | 214 to 221 °C | Cc1cc(-c2c(C)nc3ccc(N4CC5CNCC5C4)nn23)ccn1 (stereo not shown) (as salt: HCl) [Compound 67, 6-Hexahydropyrrolo[3,4-c]pyrrol-2(1H)-yl-2-methyl-3-(2-methylpyridin-4-yl)-imidazo[1,2-b]-pyridazine]
10 | 139 to 141 °C | Cc1nc2ccc(N3CCNCC3)nn2c1-c1ccnc(F)c1 [Compound 3, 3-(2-Fluoropyridin-4-yl)-2-methyl-6-piperazin-1-ylimidazo[1,2-b]pyridazine]
11 | 199 to 201 °C | CC(C)c1nc2ccc(N3CCNCC3)nn2c1-c1ccncc1 [Compound 9, 2-Isopropyl-6-piperazin-1-yl-3-pyridin-4-ylimidazo[1,2-b]pyridazine]
12 | 169 to 171 °C | c1cc(-c2c(C3CC3)nc3ccc(N4CCNCC4)nn23)ccn1 [Compound 11, 2-Cyclopropyl-6-piperazin-1-yl-3-pyridin-4-ylimidazo[1,2-b]pyridazine]
13 | 92 to 119 °C | CC(C)Cc1nc2ccc(N3CCNCC3)nn2c1-c1ccncc1 [Compound 16, 2-Isobutyl-6-piperazin-1-yl-3-pyridin-4-ylimidazo[1,2-b]pyridazine]
14 | 146 to 148 °C | Cc1nc2ccc(N3CCN[C@H](C)C3)nn2c1-c1ccncc1 [Compound 26, 2-Methyl-6-((R)-3-methylpiperazin-1-yl)-3-pyridin-4-ylimidazo[1,2-b]pyridazine]
15 | 157 to 159 °C | Cc1cc(-c2c(C)nc3ccc(N4CCN[C@H](C)C4)nn23)ccn1 [Compound 27, 2-Methyl-6-((R)-3-methylpiperazin-1-yl)-3-(2-methylpyridin-4-yl)imidazo[1,2-b]pyridazine]
16 | 172 to 177 °C | Cc1nc2ccc(N3CCN[C@H](C)C3)nn2c1-c1ccnc(N)c1 [Compound 28, 4-[2-Methyl-6-((R)-3-methylpiperazin-1-yl)imidazo[1,2-b]pyridazin-3-yl]pyridin-2-ylamine]
17 | 146 to 148 °C | Cc1nc2ccc(N3CCN[C@@H](C)C3)nn2c1-c1ccncc1 [Compound 35, 2-Methyl-6-((S)-3-methylpiperazin-1-yl)-3-pyridin-4-ylimidazo[1,2-b]pyridazine]
18 | 106 to 108 °C | COc1cc(-c2c(C)nc3ccc(N4CCN[C@@H](C)C4)nn23)ccn1 [Compound 36, 3-(2-Methoxypyridin-4-yl)-2-methyl-6-((S)-3-methylpiperazin-1-yl)imidazo[1,2-b]pyridazine]
19 | 172 to 177 °C | Cc1nc2ccc(N3CCN[C@@H](C)C3)nn2c1-c1ccnc(N)c1 [Compound 38, 4-[2-Methyl-6-((S)-3-methylpiperazin-1-yl)imidazo[1,2-b]pyridazin-3-yl]pyridin-2-ylamine]
20 | 150 to 152 °C | Cc1nc2ccc(N3CCN(C)CC3)nn2c1-c1ccncc1 [Compound 39, 2-Methyl-6-(4-methylpiperazin-1-yl)-3-pyridin-4-ylimidazo[1,2-b]pyridazine]

Row | melting point | Compound
21 | 182 to 184 °C | CN1CCN(c2ccc3nc(C(F)(F)F)c(-c4ccncc4)n3n2)CC1 [Compound 40, 6-(4-Methylpiperazin-1-yl)-3-pyridin-4-yl-2-trifluoromethylimidazo[1,2-b]pyridazine]
22 | 237 to 240 °C | Cc1nc2ccc(N3CCNC(CO)C3)nn2c1-c1ccncc1 (stereo not shown) [Compound 41, [4-(2-Methyl-3-pyridin-4-ylimidazo[1,2-b]pyridazin-6-yl)piperazin-2-yl]methanol]
23 | 144 to 146 °C | CCN1CCN(c2ccc3nc(C)c(-c4ccnc(C)c4)n3n2)CC1 [Compound 43, 6-(4-Ethylpiperazin-1-yl)-2-methyl-3-(2-methylpyridin-4-yl)imidazo[1,2-b]pyridazine]
24 | 97 to 99 °C | Cc1cc(-c2c(C)nc3ccc(N4CCN(C(C)C)CC4)nn23)ccn1 [Compound 45, 6-(4-Isopropylpiperazin-1-yl)-2-methyl-3-(2-methylpyridin-4-yl)imidazo[1,2-b]pyridazine]
25 | 122 to 132 °C | Cc1nc2ccc(N3CCN(C4CCC4)CC3)nn2c1-c1ccncc1 [Compound 47, 6-(4-Cyclobutylpiperazin-1-yl)-2-methyl-3-pyridin-4-ylimidazo[1,2-b]pyridazine]
26 | 132 to 144 °C | Cc1nc2ccc(N3CCN(C4CCC4)CC3)nn2c1-c1ccnc(N)c1 [Compound 48, 4-[6-(4-Cyclobutylpiperazin-1-yl)-2-methylimidazo[1,2-b]pyridazin-3-yl]pyridin-2-ylamine]
27 | 151 to 156 °C | Cc1nc2ccc(N3CCNC(C)(C)C3)nn2c1-c1ccnc(CN)c1 [Compound 50, {4-[6-(3,3-Dimethylpiperazin-1-yl)-2-methylimidazo[1,2-b]pyridazin-3-yl]pyridin-2-yl}methylamine]
28 | 127 to 129 °C | Cc1cc(-c2c(C)nc3ccc(N4C[C@@H](C)N[C@@H](C)C4)nn23)ccn1 [Compound 55, 6-(cis-3,5-Dimethylpiperazin-1-yl)-2-methyl-3-(2-methylpyridin-4-yl)imidazo[1,2-b]pyridazine]
29 | 213 to 215 °C | Cc1nc2ccc(N3C[C@@H](C)N[C@@H](C)C3)nn2c1-c1ccnc(N)c1 [Compound 56, 4-[6-(cis-3,5-Dimethylpiperazin-1-yl)-2-methylimidazo[1,2-b]pyridazin-3-yl]pyridin-2-ylamine]
30 | 111 to 126 °C | CNc1cc(-c2c(C)nc3ccc(N4C[C@@H](C)N[C@@H](C)C4)nn23)ccn1 [Compound 57, {4-[6-(cis-3,5-Dimethylpiperazin-1-yl)-2-methylimidazo[1,2-b]pyridazin-3-yl]pyridin-2-yl}-methylamine]
31 | 131 to 133 °C | Cc1cc(-c2c(C)nc3ccc(N4C[C@H]5CCN[C@@H]5C4)nn23)ccn1 [Compound 65, (R,S)-6-(Hexahydropyrrolo[3,4-b]pyrrol-5(1H)-yl)-2-methyl-3-(2-methylpyridin-4-yl)imidazo[1,2-b]pyridazine]
32 | > 155 °C (dec.) | Cc1nc2ccc(N3CC4CNCC4C3)nn2c1-c1ccnc(N)c1 (stereo not shown) [Compound 68, {4-[6-(Hexahydropyrrolo[3,4-c]pyrrol-2(1H)-yl)-2-methylimidazo[1,2-b]pyridazin-3-yl]pyridin-2-yl}amine]
33 | 172 to 175 °C | Cc1nc2ccc(N3CC4CN(C(C)C)CC4C3)nn2c1-c1ccncc1 (stereo not shown) [Compound 72, 6-(−5-Isopropylhexahydropyrrolo[3,4-c]pyrrol-2(1H)-yl)-2-methyl-3-pyridin-4-ylimidazo[1,2-b]-pyridazine]
34 | 215 to 218 °C | Cc1nc2ccc(N3CC4CN(C(C)C)CC4C3)nn2c1-c1ccnc(N)c1 (stereo not shown) [Compound 73, 4-[6-(−5-Isopropylhexahydropyrrolo[3,4-c]pyrrol-2(1H)-yl)-2-methylimidazo[1,2-b]pyridazin-3-yl]pyridin-2-ylamine]
35 | 95 °C | COc1cc(-c2c(C)nc3ccc(N4CC5CNCC5C4)nn23)ccn1 (stereo not shown) [Compound 74, 6-Hexahydropyrrolo[3,4-c]pyrrol-2(1H)-yl-3-(2-methoxypyridin-4-yl)-2-methylimidazo[1,2-b]-pyridazine]
36 | 130 to 135 °C | Cc1nc2ccc(N3C[C@H]4CCCN[C@@H]4C3)nn2c1-c1ccncc1 [Compound 75, (R,S)-2-Methyl-6-(octahydropyrrolo[3,4-b]pyridin-6-yl)-3-pyridin-4-ylimidazo[1,2-b]-pyridazine]
37 | 117 to 120 °C | Cc1cc(-c2c(C)nc3ccc(N4CCC5(CC4)CNC5)nn23)ccn1 [Compound 76, 6-(2,7-Diazaspiro[3.5]non-7-yl)-2-methyl-3-(2-methylpyridin-4-yl)imidazo[1,2-b]pyridazine]
38 | 150 to 153 °C | Cc1nc2ccc(N3CCC(N4CCCC4)CC3)nn2c1-c1ccncc1 [Compound 82, 2-Methyl-3-pyridin-4-yl-6-(4-pyrrolidin-1-ylpiperidin-1-yl)imidazo[1,2-b]pyridazine]
39 | 124 to 126 °C | Cc1cc(-c2c(C)nc3ccc(N4CCC(N5CCCC5)CC4)nn23)ccn1 [Compound 83, 2-Methyl-3-(2-methylpyridin-4-yl)-6-(4-pyrrolidin-1-ylpiperidin-1-yl)imidazo[1,2-b]pyridazine]
40 | 129 to 138 °C | Cc1nc2ccc(N3CCC(N4CCCC4)CC3)nn2c1-c1ccnc(N)c1 [Compound 84, 4-[2-Methyl-6-(4-pyrrolidin-1-ylpiperidin-1-yl)imidazo[1,2-b]pyridazin-3-yl]pyridin-2-ylamine]
